27 molecules from patent US20250101019A1 (Insilico Medicine IP Limited, priority 2022, published 2025) can be followed below.

For assay [1], the target named is T1, ENPP1 (Homo sapiens (Human), UniProt P22413). The assay can be described thus: cGAMP-Glo enzymatic assay (2′3′-cGAMP substrate, AMP-Glo readout). The class given is biochemical. The conditions noted are these: substrate 2′3′-cGAMP; 25° C. for 60 min; 50 mM Tris pH 8.8. The method, then: (§1) Example A: Enzymatic Assay
(§2) • 1. Diluted compounds in DMSO by hand for 11 points, 3 folds dilution. Then transferred 0.02 μL compounds to 384 assay plate by ECHO. • 2. Added 2 μL specified concentration of ENPP1 to 384 assay plate. Centrifuged 1000 RPM for 1 min. • 3. Added 2 μL specified concentration of ATP to the assay plate. Centrifuged 1000 RPM for 1 min. • 4. Incubated at 25° C. for 60 min. • 5. Added 4 μL AMP-Glo Reagent to the assay plates. • 6. Centrifuged 1000 RPM for 1 min, incubate at 25° C. for 1 hours. • 7. Added 8 μL Kinase Detection Reagent to the assay plates. • 8. Centrifuged 1000 RPM for 1 min, incubated at 25° C. for 1 hours. The final assay reaction mixture contained a buffer of 50 mM Tris pH 8.8, 250 mM NaCl and 0.1% BSA • 9. Read on Envision for US LUM as RLU. • 10. Analyzed the raw data using the equation (V. Data analysis). cGAMP-Glo Assay: • 1. Diluted compounds in DMSO by hand for 11 points, 3 folds dilution. Then transferred 0.02 μL compounds to 384 assay plate by ECHO. • 2. Added 2 μL specified concentration of ENPP1 to 384 assay plate, centrifuged 1000 RPM for 1 min. • 3. Added 2 μL specified concentration of 2′3′-cGAMP to the assay plate, centrifuged 1000 RPM for 1 min. • 4. Incubated at 25° C. for 60 min. • 5. Added 4 μL AMP-Glo Reagent to the assay plates. • 6. Centrifuged 1000 RPM for 1 min, incubated at 25° C. for 1 hours. • 7. Added 8 μL Kinase Detection Reagent to the assay plates. • 8. Centrifuged 1000 RPM for 1 min, incubate at 25° C. for 1 hours. The final assay reaction mixture contained a buffer of 50 mM Tris pH 8.8, 250 mM NaCl and 0.1% BSA • 9. Read on Envision for US LUM as RLU. • 10. Analyzed the raw data using the equation (V. Data analysis).

Assay [2] addresses T1, ENPP1. The assay is described as follows: ATP-Glo enzymatic assay (ATP substrate, AMP-Glo readout). The class given is biochemical. The conditions noted are these: 25° C. for 60 min, 50 mM Tris pH 8.8. The method, then: as §1, §2

T1 sequence (P22413 whole entry, species assumed): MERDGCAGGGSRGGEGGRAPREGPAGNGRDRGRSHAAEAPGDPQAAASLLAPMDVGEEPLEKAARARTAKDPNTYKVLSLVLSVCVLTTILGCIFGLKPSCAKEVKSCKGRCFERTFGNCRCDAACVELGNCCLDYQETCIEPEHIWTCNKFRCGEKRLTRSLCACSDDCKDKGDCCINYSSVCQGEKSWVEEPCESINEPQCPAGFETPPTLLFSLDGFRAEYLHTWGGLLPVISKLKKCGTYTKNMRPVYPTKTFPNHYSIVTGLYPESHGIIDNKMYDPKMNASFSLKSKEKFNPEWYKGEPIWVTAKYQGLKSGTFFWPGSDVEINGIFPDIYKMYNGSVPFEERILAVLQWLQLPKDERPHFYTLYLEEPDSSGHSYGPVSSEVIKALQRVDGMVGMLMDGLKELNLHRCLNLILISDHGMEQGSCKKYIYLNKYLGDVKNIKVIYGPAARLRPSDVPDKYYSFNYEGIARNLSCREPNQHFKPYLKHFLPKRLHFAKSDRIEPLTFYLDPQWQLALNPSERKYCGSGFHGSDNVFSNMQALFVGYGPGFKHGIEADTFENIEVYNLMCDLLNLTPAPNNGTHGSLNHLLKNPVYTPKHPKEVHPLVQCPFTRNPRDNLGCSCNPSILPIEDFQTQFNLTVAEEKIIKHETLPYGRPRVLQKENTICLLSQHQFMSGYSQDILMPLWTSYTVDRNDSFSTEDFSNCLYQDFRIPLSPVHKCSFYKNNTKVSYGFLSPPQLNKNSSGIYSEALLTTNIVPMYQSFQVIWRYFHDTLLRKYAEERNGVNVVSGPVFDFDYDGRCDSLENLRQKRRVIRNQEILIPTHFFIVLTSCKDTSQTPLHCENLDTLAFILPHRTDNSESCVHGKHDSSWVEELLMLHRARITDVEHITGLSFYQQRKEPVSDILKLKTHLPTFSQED

On to `Cc1ncc2c(C)cn(Cc3ccc(S(N)(=O)=O)cc3)c2c1-c1ccccc1` [Example 16, 4-((3,6-dimethyl-7-phenyl-1H-pyrrolo[3,2-c]pyridin-1-yl)methyl)benzene sulfonamide], for which the IC50 in assay [1] and in assay [2] was less than 1 nM in each case.

Take `Cc1ncc2nc(CC3CC3)n(Cc3c(F)cc(S(N)(=O)=O)cc3F)c2c1-c1ccccc1` [Example 51, 4-((2-(cyclopropylmethyl)-6-methyl-7-phenyl-1H-imidazo[4,5-c]pyridin-1-yl)methyl)-3,5-difluorobenzenesulfonamide]: the IC50 in assay [1] and in assay [2] was less than 1 nM each time.

On to `COc1ncc2c(C)cn(Cc3c(F)cc(S(N)(=O)=O)cc3F)c2c1-c1ccn(C)n1` [Example 4, 3,5-difluoro-4-((6-methoxy-3-methyl-7-(1-methyl-1H-pyrazol-3-yl)-1H-pyrrolo[3,2-c]pyridin-1-yl)methyl)benzene sulfonamide], for which the IC50 in assay [1] was less than 1 nM; in assay [2], 1 to 10 nM.

For `Cc1ncc2c(C)cn(Cc3c(F)cc(S(N)(=O)=O)cc3F)c2c1-c1ccn(C(F)(F)F)n1` [Example 18, 4-((3,6-dimethyl-7-(1-(trifluoromethyl)-1H-pyrazol-3-yl)-1H-pyrrolo[3,2-c]pyridin-1-yl)methyl)-3,5-difluorobenzenesulfonamide], the figures for the IC50 in assay [1] and in assay [2] were 10 to 100 nM and 100 to 1000 nM, respectively.

Take `Cc1ncc2c(c1-c1ccccc1)n(Cc1ccc(S(N)(=O)=O)cc1)c(=O)n2C` [Example 20, 4-((3,6-dimethyl-2-oxo-7-phenyl-2,3-dihydro-1H-imidazo[4,5-c]pyridin-1-yl)methyl)benzenesulfonamide]: the IC50 in assay [1] and in assay [2] was less than 1 nM each time.

With `Cc1ncc2c(c1-c1ccccc1)n(Cc1c(F)cc(S(N)(=O)=O)cc1F)c(=O)n2C` [Example 59, 4-((3,6-dimethyl-2-oxo-7-phenyl-2,3-dihydro-1H-imidazo[4,5-c]pyridin-1-yl)methyl)-3,5-difluorobenzenesulfonamide], the IC50 in assay [1] and in assay [2] was less than 1 nM each time.

Consider `COc1ncc2nc(C)n(Cc3ccc(S(N)(=O)=O)cc3F)c2c1-c1ccccc1` [Example 25], for which the IC50 in assay [1] and in assay [2] was less than 1 nM in each case.

Turning to `CCc1ncc2nc(C)n(Cc3c(F)cc(S(N)(=O)=O)cc3F)c2c1-c1ccccc1` [Example 48, 4-((6-ethyl-2-methyl-7-phenyl-1H-imidazo[4,5-c]pyridin-1-yl)methyl)-3,5-difluorobenzenesulfonamide], the IC50 in assay [1] and in assay [2] was less than 1 nM each time.

“4-((6-cyano-2-methyl-7-phenyl-1H-imidazo[4,5-c]pyridin-1-yl)methyl)benzenesulfonamide [Example 41]”: the IC50 in assay [1] and in assay [2] was less than 1 nM each time.

`Cc1ncc2nc(C)n(Cc3c(F)cc(S(N)(=O)=O)cc3F)c2c1C1=CCCC1` [Example 58, 4-((7-(cyclopent-1-en-1-yl)-2,6-dimethyl-1H-imidazo[4,5-c]pyridin-1-yl)methyl)-3,5-difluorobenzenesulfonamide]: the IC50 in assay [1] and in assay [2] was less than 1 nM each time.

As to `COc1ncc2ccn(Cc3ccc(S(N)(=O)=O)cc3)c2c1-n1ccc(C)n1` [Example 8, 4-((6-methoxy-7-(3-methyl-1H-pyrazol-1-yl)-1H-pyrrolo[3,2-c]pyridin-1-yl)methyl)benzenesulfonamide], the IC50 in assay [1] and in assay [2] was 10 to 100 nM in each case.

Turning to `COc1ncc2c(c1C1=CCCC1)n(Cc1c(F)cc(S(N)(=O)=O)cc1F)c(=O)n2C` [Example 61, 4-((7-(cyclopent-1-en-1-yl)-6-methoxy-3-methyl-2-oxo-2,3-dihydro-1H-imidazo[4,5-c]pyridin-1-yl)methyl)-3,5-difluorobenzenesulfonamide], the IC50 in assay [1] and in assay [2] was less than 1 nM throughout.

In the case of `Cc1ncc2nc(C(F)(F)F)n(Cc3ncc(S(N)(=O)=O)cc3F)c2c1-c1ccccc1` [Example 69, 5-fluoro-6-((6-methyl-7-phenyl-2-(trifluoromethyl)-1H-imidazo[4,5-c]pyridin-1-yl)methyl)pyridine-3-sulfonamide], the IC50 in assay [1] and in assay [2] was less than 1 nM in each case.

As to `Cc1ncc2nc(C(F)(F)F)n(Cc3ccc(S(N)(=O)=O)cn3)c2c1-c1ccccc1` [Example 67, 6-((6-methyl-7-phenyl-2-(trifluoromethyl)-1H-imidazo[4,5-c]pyridin-1-yl)methyl)pyridine-3-sulfonamide], the IC50 in assay [1] and in assay [2] was less than 1 nM in each case.

`Cc1ncc2nc(C(F)F)n(Cc3ncc(S(N)(=O)=O)cc3F)c2c1-c1ccccc1` [Example 72, 6-((2-(difluoromethyl)-6-methyl-7-phenyl-1H-imidazo[4,5-c]pyridin-1-yl)methyl)-5-fluoropyridine-3-sulfonamide]: the IC50 in assay [1] and in assay [2] was less than 1 nM in each case.

On to `COc1ncc2c(c1-c1ccccc1)n(Cc1ncc(S(N)(=O)=O)cc1F)c(=O)n2C` [Example 80, 5-fluoro-6-((6-methoxy-3-methyl-2-oxo-7-phenyl-2,3-dihydro-1H-imidazo[4,5-c]pyridin-1-yl)methyl)pyridine-3-sulfonamide], for which the IC50 in assay [1] and in assay [2] was less than 1 nM in each case.

Turning to `Cc1ncc2nc(C3CC3)n(Cc3ncc(S(N)(=O)=O)cc3F)c2c1-c1ccccc1` [Example 70, 6-((2-cyclopropyl-6-methyl-7-phenyl-1H-imidazo[4,5-c]pyridin-1-yl)methyl)-5-fluoropyridine-3-sulfonamide], the IC50 in assay [1] and in assay [2] was less than 1 nM in each case.

For `COc1ncc2c(C)cn(Cc3ccc(S(N)(=O)=O)cc3)c2c1-c1ccc(F)cc1` [Example 12], the IC50 in assay [1] and in assay [2] was 10 to 100 nM throughout.

Consider `COc1ncc2nc(C)n(C(C)c3ccc(S(N)(=O)=O)cc3)c2c1-c1ccccc1` (stereo not drawn) [Example 35, 4-(1-(6-methoxy-2-methyl-7-phenyl-1H-imidazo[4,5-c]pyridin-1-yl)ethyl) benzenesulfonamide], for which the IC50 in assay [1] and in assay [2] was 1 to 10 nM in each case.

`COc1ncc2nc(C)n(Cc3ccc(S(N)(=O)=O)c(F)c3)c2c1-c1ccccc1` [Example 36, 2-fluoro-4-((6-methoxy-2-methyl-7-phenyl-1H-imidazo[4,5-c]pyridin-1-yl)methyl)benzenesulfonamide]: the IC50 in assay [1] and in assay [2] was less than 1 nM each time.

Take `Cc1ncc2ncn(Cc3ccc(S(N)(=O)=O)cc3)c2c1-c1ccccc1` [Example 29, 4-((6-methyl-7-phenyl-1H-imidazo[4,5-c]pyridin-1-yl)methyl)benzene sulfonamide]: the IC50 in assay [1] and in assay [2] was less than 1 nM throughout.

On to `[2H]C([2H])([2H])Oc1ncc2nc(C)n(Cc3ncc(S(N)(=O)=O)cc3F)c2c1-c1ccccc1` [Example 85, 5-fluoro-6-((6-(methoxy-d3)-2-methyl-7-phenyl-1H-imidazo[4,5-c]pyridin-1-yl)methyl)pyridine-3-sulfonamide], for which the 50% inhibitory concentration (IC50) in assay [1] and in assay [2] was less than 1 nM in each case.

For `Cc1nc2cncc(-c3ccccc3)c2n1Cc1c(F)cc(S(N)(=O)=O)cc1F` [Example 43, 3,5-difluoro-4-((2-methyl-7-phenyl-1H-imidazo[4,5-c]pyridin-1-yl)methyl)benzenesulfonamide], the IC50 in assay [1] and in assay [2] was less than 1 nM each time.

As to `Cc1ncc2nc(CN3CCCC3)n(Cc3c(F)cc(S(N)(=O)=O)cc3F)c2c1-c1ccccc1` [Example 60, 3,5-difluoro-4-((6-methyl-7-phenyl-2-(pyrrolidin-1-ylmethyl)-1H-imidazo[4,5-c]pyridin-1-yl)methyl)benzenesulfonamide], the IC50 in assay [1] and in assay [2] was less than 1 nM in each case.

As for `COc1ncc2ccn(Cc3ccc(S(N)(=O)=O)cc3)c2c1-c1ccccc1` [Example 9, 4-((6-methoxy-7-phenyl-1H-pyrrolo[3,2-c]pyridin-1-yl)methyl)benzene sulfonamide], the IC50 in assay [1] and in assay [2] was less than 1 nM throughout.

`Cc1nc2cncc(-c3ccccc3)c2n1Cc1ccc(S(N)(=O)=O)cc1` [Example 40, 4-((2-methyl-7-phenyl-1H-imidazo[4,5-c]pyridin-1-yl)methyl)benzene sulfonamide]: the IC50 in assay [1] and in assay [2] was less than 1 nM each time.

On to `Cc1ncc2ccn(Cc3ccc(S(N)(=O)=O)cc3)c2c1-c1ccccc1` [Example 15, 4-((6-methyl-7-phenyl-1H-pyrrolo[3,2-c]pyridin-1-yl)methyl)benzene sulfonamide], for which the IC50 in assay [1] and in assay [2] was less than 1 nM in each case.

The IC50 is the concentration that inhibits the measured activity by half.
